From publication PMC8591608, “DNDI-6148: A Novel Benzoxaborole Preclinical Candidate for the Treatment of Visceral Leishmaniasis” (Journal of Medicinal Chemistry, 2021)

Tests used:
[1] = Liver microsome stability, rat; assay type: in vitro ADME; conditions: Sprague-Dawley, rat liver microsomes, pH 7.4
Protocol: Tests were performed by WuXi AppTec, China. Test compounds (at 1 μM) or positive controls (testosterone, propafenone, and diclofenac) were incubated at 37 °C with liver microsomes from Balb/c mouse, golden (Syrian) hamster, Sprague-Dawley rat, Beagle dog, or human in the presence of a NADPH regenerating system and phosphate buffer (100 mM, pH 7.4) at 0.4 or 0.8 mg/mL microsomal protein. The samples were removed at time intervals from 0 to 60, 90, or 120 min and immediately mixed with cold methanol supplemented or not with acid (3% formic acid) and centrifuged prior to analysis by LC-MS/MS using tolbutamide or propranolol as internal standards.

[2] = target: CYP2C9 (Homo sapiens, UniProt P11712); test: CYP inhibition, CYP2C9; assay type: in vitro ADME; conditions: human liver microsomes
Protocol: (§1) The study was conducted by WuXi AppTec, Co., China, using the time-dependent (TDI) method. […] Following incubation with substrates (phenacetin for 1A2, diclofenac for 2C9, S-(+) mephenytoin for 2C19, dextromethorphan for 2D6, and midazolam or testosterone for 3A4), reactions were stopped by adding ice-cold acetonitrile, the samples were analyzed for the formation of metabolites by LC-MS/MS, and the percentage of inhibition was determined.

[3] = tested on: L. infantum; test: L. infantum hamster model of VL; assay type: in vivo; conditions: for reduction in parasite burden, bone marrow, 10 days / reduction in parasite burden, liver, 10 days / reduction in parasite burden, spleen, 10 days: 25 mg/kg BID p.o. for 10 days
Protocol: L. infantum (MHOM/MA/67/ITMAP263) and L. donovani (MHOM/ET/67/L82) were maintained in the golden (Syrian) hamster (Mesocricetus auratus). Ex vivo amastigotes were collected from the spleen of an infected donor hamster using two centrifugation purification steps: 230g for 10 min, keeping the supernatant layer, and 4100g for 30 min, keeping the pellet. The spleen parasite burden was assessed using the Stauber technique.[25] For in vitro assays, the inoculum was prepared in RPMI-1640 medium, supplemented with 200 mM L-glutamine, 16.5 mM NaHCO3, and 5% inactivated fetal calf serum. For the in vivo model, an infection inoculum containing 2 × 10^7 amastigotes/100 μL was prepared in phosphate-buffered saline (PBS).
Female golden hamsters for the in vivo model of visceral leishmaniasis were purchased from Janvier, France (body weight 80–100 g). This study using laboratory rodents was carried out in strict accordance with all mandatory guidelines (EU directives, including the Revised Directive 2010/63/EU on the protection of Animals used for Scientific Purposes that came into force on 01/01/2013, and the declaration of Helsinki in its latest version) and was approved by the ethical committee of the University of Antwerp, Belgium (UA-ECD 2011-74). Female golden hamsters for the pharmacokinetic study were purchased from Vital River, Beijing, China. This study was conducted following institutional review and in accordance with institutional and national guidelines at WuXi AppTec (the Institutional Animal Care and Use Committee (IACUC)). Balb/c mice for the in vivo model of visceral leishmaniasis (LSHTM) were purchased from Charles River, U.K., and related studies were conducted under license PPL 70/8427 from the U.K. Home Office.
Female golden hamsters were randomly allocated to experimental groups of six animals each, based on body weight. At the start of the experiment (Day 0), each animal was infected with L. infantum or L. donovani inoculum, delivered by intracardial injection. Six hamsters were assigned to the vehicle-treated, infected control group. Six hamsters were assigned per group (1 group/compound) for the evaluation of compound and miltefosine. […] At Day 35 (10 days after the final oral dose), all animals were euthanized and autopsies were conducted. The study evaluated the following parameters. • 1. Adverse effects: all animals were observed daily for the occurrence/presence of adverse effects. • 2. Body weight: all animals were weighed twice per week to monitor general health. • 3. Parasite burden: amastigote burdens in each target organ (liver, spleen, and bone marrow) were determined at Day 35. The organs of individual animals were weighed (except for bone marrow). Impression smears were stained with Giemsa for microscopic examination of the total amastigote burden, defined as the mean number of amastigotes per cell multiplied by the number of cells counted (minimum 500 nuclei); the results were expressed as a percentage reduction in amastigote burden compared to vehicle-treated, infected control animals.

[4] = target: CYP2D6 (Homo sapiens, UniProt P10635); test: CYP inhibition, CYP2D6; assay type: in vitro ADME; conditions: human liver microsomes
Protocol: as §1

[5] = tested on: L. donovani; test: L. donovani mouse model of VL; assay type: in vivo
Protocol: Female BALB/c mice were infected with 2 × 10^7L. donovani amastigotes/0.2 mL i.v. harvested from the spleen of an infected donor RAG1B6 mouse (LSHTM). After 7 days, the mice were treated with miltefosine or DNDI-6148 for 5 consecutive days. Five days after the final dose, mice were humanely killed, liver and spleens were dissected and weighed, and impression smears were made for the calculation of parasite burden (Stauber equation).[25]

[6] = tested on: wild-type L. donovani promastigotes; test: Drug sensitivity, wild-type L. donovani promastigotes; assay type: cell-based; conditions: Leishmania donovani, Figure 2D
Protocol: The clonal L. donovani cell line LdBOB (derived from MHOM/SD/62/1S-CL2D) was grown as promastigotes at 28 °C, as described previously. Bloodstream form T. brucei MiTat 1.2 clone 221a and its derived subline, 2T1, were cultured at 37 °C in the presence of 5% CO2 in HMI9-T medium, as described previously. T. brucei cell lines overexpressing CPSF3 and overexpressing a mutated version of CPSF3 (Asn232His) were generated as part of a previous study and cultured as described.[19]
Drug sensitivity assays with wild-type and transgenic T. brucei and L. donovani cell lines were carried out as previously described.[31],[32]

[7] = Hepatocyte stability, dog; assay type: in vitro ADME; conditions: Beagle, cryopreserved dog hepatocytes
Protocol: Tests were performed by WuXi AppTec, China. Following a viability check of cryopreserved hepatocytes from Sprague-Dawley rat, Beagle dog, or human, test compounds (at 1 μM) or positive controls 7-ethoxycoumarin and 7-hydroxycoumarin (at 3 μM) were incubated at 37 °C, 5% CO2 with hepatocytes in Williams’ Medium E. Following incubation of 15, 30, 60, 90, 120, 180, and 240 min, reactions were stopped by the addition of acetonitrile, the samples were centrifuged, and LC-MS/MS analysis was conducted using tolbutamide as an internal standard.

Sequence of CYP2C9 (P11712 whole entry): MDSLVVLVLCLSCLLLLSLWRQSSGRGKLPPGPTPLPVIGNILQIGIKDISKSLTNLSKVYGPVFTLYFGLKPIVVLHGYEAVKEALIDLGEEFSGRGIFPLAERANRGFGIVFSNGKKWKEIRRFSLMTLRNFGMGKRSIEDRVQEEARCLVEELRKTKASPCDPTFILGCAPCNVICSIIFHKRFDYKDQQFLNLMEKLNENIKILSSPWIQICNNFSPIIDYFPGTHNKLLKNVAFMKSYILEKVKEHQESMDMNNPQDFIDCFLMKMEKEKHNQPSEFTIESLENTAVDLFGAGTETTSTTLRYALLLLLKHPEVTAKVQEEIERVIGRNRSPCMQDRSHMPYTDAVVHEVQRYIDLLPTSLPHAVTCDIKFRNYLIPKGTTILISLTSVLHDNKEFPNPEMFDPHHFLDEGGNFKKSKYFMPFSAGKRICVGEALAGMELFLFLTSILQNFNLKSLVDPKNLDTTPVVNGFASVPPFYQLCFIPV
Sequence of CYP2D6 (P10635 whole entry): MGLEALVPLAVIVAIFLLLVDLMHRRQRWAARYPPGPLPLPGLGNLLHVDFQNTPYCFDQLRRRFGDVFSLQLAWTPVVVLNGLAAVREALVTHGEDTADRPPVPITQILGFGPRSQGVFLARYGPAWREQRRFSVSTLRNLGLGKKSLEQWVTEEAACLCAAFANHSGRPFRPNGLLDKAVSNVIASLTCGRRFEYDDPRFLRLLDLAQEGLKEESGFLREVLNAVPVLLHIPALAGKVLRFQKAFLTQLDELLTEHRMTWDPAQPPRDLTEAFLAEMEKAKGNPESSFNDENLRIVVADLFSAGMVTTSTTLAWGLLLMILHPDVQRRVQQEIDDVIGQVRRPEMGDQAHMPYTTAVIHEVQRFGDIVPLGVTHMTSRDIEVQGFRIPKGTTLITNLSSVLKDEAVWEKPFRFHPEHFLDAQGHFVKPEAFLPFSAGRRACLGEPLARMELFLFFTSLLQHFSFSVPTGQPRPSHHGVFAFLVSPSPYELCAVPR

Row | Compound | microsomal CLint at 1 μM [1] [µL/min/mg] | IC50 [2] [µM] | reduction in parasite burden, bone marrow, 5 days ([3]; 25 mg/kg BID p.o. for 5 days) [%] | reduction in parasite burden, liver, 5 days ([3]; 25 mg/kg BID p.o. for 5 days) [%] | reduction in parasite burden, spleen, 5 days ([3]; 25 mg/kg BID p.o. for 5 days) [%] | reduction in parasite burden, bone marrow, 10 days [3] [%] | reduction in parasite burden, liver, 10 days [3] [%] | reduction in parasite burden, spleen, 10 days [3] [%] | reduction in parasite burden, bone marrow, 5 days ([3]; 50 mg/kg BID p.o. for 5 days) [%] | reduction in parasite burden, liver, 5 days ([3]; 50 mg/kg BID p.o. for 5 days) [%] | reduction in parasite burden, spleen, 5 days ([3]; 50 mg/kg BID p.o. for 5 days) [%] | IC50 [4] [µM] | reduction in liver parasite burden following 5 days of p.o. dosing BID, L. donovani ([5]; 25 mg/kg BID) [%] | reduction in liver parasite burden following 5 days of p.o. dosing BID, L. donovani ([5]; 50 mg/kg BID) [%] | EC50 [6] [µM] | hepatocyte CLint at 1 μM [7] [µL/min/1e6 cells]
1 | Cc1c(C(=O)Nc2ccc3c(c2)B(O)OC3)nnn1-c1ccccn1 [Compound 23, N-(1-Hydroxy-1,3-dihydrobenzo[c][1,2]oxaborol-6-yl)-5-methyl-1-(pyridin-2-yl)-1H-1,2,3-triazole-4-carboxamide] | < 11.9 | > 50 | 93.6 | 98.3 | 98.2 | 99.4 | 100 | 99.9 | 99.0 | 99.8 | 99.9 | > 50 | 97.1 | 99.7 | 0.411 ± 0.012 | 2.4
2 | Cc1c(-c2ccccn2)coc1C(=O)Nc1ccc2c(c1)B(O)OC2 [Compound 28, N-(1-Hydroxy-1,3-dihydrobenzo[c][1,2]oxaborol-6-yl)-3-methyl-4-(pyridin-2-yl)furan-2-carboxamide] | – | – | 95.7 | 98.9 | 97.8 | 84 | 99.4 | 96.9 | 99.1 | 99.9 | 99.9 | – | 97.5 | 99.5 | – | –
